Assay results published in patent US5405848A, “Substituted thiazolylaminotetrahydropyridopyrimidines derivatives useful as platelet aggregation inhibitors” (Ortho Pharmaceutical Corporation, priority 1993, dated 1995).

What was measured:
platelets = assay: Platelet Aggregation Inhibition Activity (gel-filtered platelets, thrombin or ADP agonist, light transmission); type: cell-based; settings: 37° C.; for IC50: unit inferred
Description: The percentage of platelet aggregation is calculated as an increase in light transmission of drug treated platelet concentrate vs control treated platelet concentrate. Blood is obtained from drug free, normal donors and placed into tubes containing 0.13 M sodium citrate (two sources are routinely used: platelet concentrate obtained from Biological Specialty Corp., Lansdale, Pa. or whole blood obtained from donors). Platelet rich plasma (PRP) is collected by centrifugation of the concentrate or whole blood at 130 ×g for 15 min at 25° C. The PRP (5 mL) is gel filtered through Sepharose 2B (bed volume 50 mL), and the platelet count is adjusted to 2×10^7 platelets per sample. The following constituents are added to a siliconized cuvette: 250 μL of the concentrated platelet flitrate, 100 μL of Tyrode's buffer (0.14 M NaCl, 0.0027 M KCl, 0.012 M NaHCO3, 0.76 mM Na2HPO4, 0.0055 M glucose and 2 mg/mL BSA pH 7.4), 50 μL of 2 mM calcium and test drug […]. Aggregation is monitored in a dual channel Chrono-log Aggregometer for three minutes following the addition of agonist (thrombin 50 μL of 1 unit/mL, or ADP 50 μL of 100 μM). The final assay volume is 500 μL. The reaction takes place at 37° C. The peak aggregation response is calculated as the increase in light transmission units over a three minute period. The difference of the increase in light transmission between control and drug treated platelets is then expressed as a percent of the nondrug treated controls.

[1] = target: T1, fibrinogen receptor of blood platelets (activated platelets) (Homo sapiens, UniProt P05106+P08514); assay: Fibrinogen Binding (125I-fibrinogen binding to thrombin-activated platelets); settings: 125I-fibrinogen 0.15 μM; for IC50: unit inferred
T1 construct: from tissue
Description: The compounds of the invention as identified above are evaluated for platelet aggregation inhibition activity as indicated by the percentage of non-aggregated platelets which are available for binding in accordance with the following procedure.
^125 I-Fibrinogen binding to activated platelets is a modification of the procedure described by Bennett et al., 1988. Briefly, 40 mL of PRP are centrifuged at 120 ×g to remove contaminating red cells. Aspirin (50 μM) is added and the PRP is incubated at 37° C. for 20 minutes. The pH of the PRP is adjusted to 6.5 with 3.8% sodium citrate and 0.9 μM of PGE1 is added. Platelets are concentrated by a 300 ×g centrifugation (10 min) and the pellet is resuspended in 4 mL. of Tyrode's buffer. The platelet suspension (4 mL) is gel-filtered through a Sepharose-2B column (50 mL bed volume). The platelet count is adjusted to 1×10^8 platelets per 200 mL. The binding reaction is performed in polystyrene tubes (final volume 500 mL). Reagents are added in the following order: 80 mL of Tyrode's buffer, 50 mL of CaCl2 (final concentration (f.c.) […]) and 50 mL of thrombin (f.c. 0.1 unit/mL). The platelet suspension is then added and the mixture is allowed to incubate at room temperature for 2 minutes. Hirudin (50 mL, f.c. 0.5 unit/mL) is immediately added to prevent the catalytic activity of thrombin. Various concentrations of the compound to be tested […] with the competing radioligand ^125 I-fibrinogen (f.c. of 0.15 μM) are added. The mixture is incubated for 10 minutes at room temperature. To terminate the binding reaction the platelets are sedimented (10,000 ×g for 3 minutes) through silicone oil (3:1 hi-phenol 550/methyl silicone 200, W. F. Nye, Inc., New Bedford, Mass.), in an Eppendorf centrifuge.
The tips of the centrifuge tubes containing the pelleted platelets are cut off and counted for ^125 I-fibrinogen associated with the stimulated platelets. The amount of platelet radioactivity measured in the presence of nonlabeled fibrinogen (4 mg/mL) is considered the nonspecific binding.
Data are expressed as a percent at concentrations of 30 μM of specifically bound ^125 I-fibrinogen to the platelets in Table 5 below. Positive percentages of fibrinogen binding indicates higher activity for inhibiting platelet aggregation since only non-aggregated or free platelets are available for fibrinogen binding. Alternatively, a concentration is provided in lieu of a percentage to indicate the IC50 of concentration of compound which provides 50% fibrinogen binding.

T1 sequence (P08514 32-887 limits assumed): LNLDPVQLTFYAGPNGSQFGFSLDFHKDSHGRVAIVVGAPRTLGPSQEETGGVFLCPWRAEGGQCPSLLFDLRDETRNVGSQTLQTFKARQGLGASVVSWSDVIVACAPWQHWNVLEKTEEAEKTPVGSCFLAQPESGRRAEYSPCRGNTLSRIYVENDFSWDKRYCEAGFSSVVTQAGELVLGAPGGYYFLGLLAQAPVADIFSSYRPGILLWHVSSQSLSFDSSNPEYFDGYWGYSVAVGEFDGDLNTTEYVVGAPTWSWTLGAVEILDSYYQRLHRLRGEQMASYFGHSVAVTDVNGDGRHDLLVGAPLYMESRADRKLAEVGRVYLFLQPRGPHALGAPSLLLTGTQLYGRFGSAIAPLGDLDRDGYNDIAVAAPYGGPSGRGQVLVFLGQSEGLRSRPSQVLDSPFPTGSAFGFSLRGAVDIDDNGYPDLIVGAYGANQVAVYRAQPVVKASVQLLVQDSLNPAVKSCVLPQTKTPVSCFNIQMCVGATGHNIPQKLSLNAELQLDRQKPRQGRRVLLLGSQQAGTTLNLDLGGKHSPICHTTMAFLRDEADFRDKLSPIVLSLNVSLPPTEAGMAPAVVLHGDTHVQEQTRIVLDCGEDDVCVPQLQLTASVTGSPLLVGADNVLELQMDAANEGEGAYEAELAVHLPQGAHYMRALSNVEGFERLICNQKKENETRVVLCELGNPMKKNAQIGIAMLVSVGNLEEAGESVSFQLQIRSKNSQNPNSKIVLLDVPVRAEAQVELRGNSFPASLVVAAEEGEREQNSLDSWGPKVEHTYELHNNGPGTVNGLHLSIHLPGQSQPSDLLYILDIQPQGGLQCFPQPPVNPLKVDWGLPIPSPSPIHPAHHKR
T1 sequence (P08514 891-1039 partner limits assumed): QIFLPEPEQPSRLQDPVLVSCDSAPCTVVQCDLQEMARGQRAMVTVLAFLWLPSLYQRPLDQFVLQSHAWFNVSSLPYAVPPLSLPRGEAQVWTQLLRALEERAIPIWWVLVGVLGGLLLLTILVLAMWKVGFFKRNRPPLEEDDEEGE
T1 sequence (P05106 27-788): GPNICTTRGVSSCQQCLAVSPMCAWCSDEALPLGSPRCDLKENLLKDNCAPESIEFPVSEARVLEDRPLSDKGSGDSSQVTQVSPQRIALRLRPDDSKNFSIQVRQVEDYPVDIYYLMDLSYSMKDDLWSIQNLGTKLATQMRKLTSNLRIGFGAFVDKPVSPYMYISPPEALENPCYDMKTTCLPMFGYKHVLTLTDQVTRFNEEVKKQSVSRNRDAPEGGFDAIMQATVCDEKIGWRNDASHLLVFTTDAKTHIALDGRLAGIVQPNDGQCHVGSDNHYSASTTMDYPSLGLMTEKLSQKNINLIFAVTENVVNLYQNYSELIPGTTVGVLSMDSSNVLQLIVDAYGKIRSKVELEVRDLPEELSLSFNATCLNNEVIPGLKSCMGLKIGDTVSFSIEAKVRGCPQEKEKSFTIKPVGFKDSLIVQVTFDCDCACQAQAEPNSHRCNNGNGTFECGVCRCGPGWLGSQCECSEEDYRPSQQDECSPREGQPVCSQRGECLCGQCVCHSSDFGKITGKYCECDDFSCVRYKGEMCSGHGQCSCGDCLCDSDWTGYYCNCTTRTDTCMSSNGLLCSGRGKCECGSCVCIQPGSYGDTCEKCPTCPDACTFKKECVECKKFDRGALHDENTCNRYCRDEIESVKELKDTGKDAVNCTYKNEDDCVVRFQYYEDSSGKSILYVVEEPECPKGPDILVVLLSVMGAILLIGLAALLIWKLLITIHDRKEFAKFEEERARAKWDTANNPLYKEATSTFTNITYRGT

SMILES	inhibition at 20 µM (platelets) [%]	IC50 (platelets) [µM]	inhibition at 30 µM [1] [%]	IC50 [1] [µM]
O=C(c1ccccc1)N1CCc2nc(Nc3nc(-c4ccc(F)cc4)cs3)nc(-c3ccccc3)c2C1 [Cmpd 9]	27	–	–	–
c1ccc(-c2csc(Nc3nc4c(c(-c5ccccc5)n3)CNCC4)n2)cc1 [Cmpd 13, 2-[4-Phenylthiazol-2-yl]amino-5,6,7,8-tetrahydro-4-phenylpyrimidino[4,5-d]pyridine]	100	7.93	69	7.7
Cc1ccc(-c2csc(Nc3nc4c(c(-c5ccccc5)n3)CNCC4)n2)cc1 [Cmpd 15, 2-[4-[4-Methylphenyl]thiazol-2-yl]amino-5,6,7,8-tetrahydro-4-phenylpyrimidino[4,5-d]pyridine]	85	–	28	–
COc1ccc(-c2csc(Nc3nc4c(c(-c5ccccc5)n3)CNCC4)n2)cc1 [Cmpd 18]	25	–	–	–
Fc1ccc(-c2csc(Nc3nc4c(c(-c5ccccc5)n3)CNCC4)n2)cc1 [Cmpd 20]	87	5.8	95	20.9
Clc1ccc(-c2csc(Nc3nc4c(c(-c5ccccc5)n3)CNCC4)n2)cc1 [Cmpd 21]	84	6.1	87	20.9
Cc1ccc(-c2csc(Nc3ncc4c(n3)CCNC4)n2)cc1 [Cmpd 23]	25	–	–	–
c1ccc(-c2csc(Nc3ncc4c(n3)CCNC4)n2)cc1 [Cmpd 24]	11	–	–	–
Cc1ccc(-c2csc(Nc3nc4c(c(-c5ccccc5)n3)CN(C(=O)CCN3CCN(C)CC3)CC4)n2)cc1 [Cmpd 26]	81	–	39	–
CCCNCCC(=O)N1CCc2nc(Nc3nc(-c4cccc(Cl)c4)cs3)nc(-c3ccccc3)c2C1 [Cmpd 28]	56	–	–	–
